A short description of the data set: physchem. The settings on record: 25 °C, organic solvent or mixture.

As for `O=C1[C@H]2NCC[C@H]2N1S(=O)(=O)O` [(1S,5R)-7-oxo-2,6-diaza-bicyclo[3.2.0]heptane-6-sulfonic acid], the solubility was at most 200 mg/mL.

These data come from US20100305315A1, “Process for the preparation of 2-(primary/secondary amino)hydrocarbyl)-carbamoyl-7-oxo-2,6-diaza-bicyclo [3.2.0.]heptane-6-sulfonic acid derivatives” (Basilea Pharmaceutica AG, priority 2007, published 2010).
